Experiments:
[1] = system: uterus; experiment: Anti-uterus growth test in the adult rat; settings: sc, 72 h; ovariectomized adult rat, s.c. 3 days with 1.5 μg/kg/day 17β-estradiol; inhibition of uterus growth; value of 44 is a mean of two measurements; read-out: anti-oestrogenic activity in vivo in % at a dose of 0.3 mg/kg (rat)
Text: The uterus of oestrogen-substituted rats can be used as a test model for detecting a direct action of substances with anti-oestrogenic properties. The parameter of oestrogenic action is estradiol-induced uterus growth in rats, which is inhibited by simultaneous administration of a substance with anti-oestrogenic action. The experimental animals (n=5-6 animals/group) were ovariectomized before the start of the test, to rule out the influence of endogenous oestrogens. After a phase of 6 to 10 days, the test substances are administered s.c. on 3 consecutive days (d1-d3) in combination with a substitution dose of 1.5 μg/kg/day 17β-estradiol. 17β-estradiol alone serves as positive control, and the excipients serve as negative control. On day 4 (d4) the animals are killed, and the uteri and vaginae are removed and weighed. The organ weights are converted to mg/100 g body weight, then the mean value and the standard deviation are calculated for each dosage. The inhibition of uterus growth induced by 17β-estradiol is shown as percentage inhibition.

[2] = target: T1, oestrogen receptor (ER) (Homo sapiens, UniProt P03372); experiment: Anti-oestrogenic action in MVLN cells (inhibition of estradiol-induced luciferase); format: cell-based; settings: inhibition of estradiol-induced luciferase signal, value of Ex. 44 is a mean value, read-out: Antioestrogenic action in vitro: MVLN transactivation antagonism IC50
T1 construct: These MVLN cells express, along with the functional oestrogen receptor (ER), a reporter construct; endogenous in cells; host or cells: MVLN cells (MCF7 derivative carrying a luciferase reporter construct)
T1 sequence (P03372 1-595): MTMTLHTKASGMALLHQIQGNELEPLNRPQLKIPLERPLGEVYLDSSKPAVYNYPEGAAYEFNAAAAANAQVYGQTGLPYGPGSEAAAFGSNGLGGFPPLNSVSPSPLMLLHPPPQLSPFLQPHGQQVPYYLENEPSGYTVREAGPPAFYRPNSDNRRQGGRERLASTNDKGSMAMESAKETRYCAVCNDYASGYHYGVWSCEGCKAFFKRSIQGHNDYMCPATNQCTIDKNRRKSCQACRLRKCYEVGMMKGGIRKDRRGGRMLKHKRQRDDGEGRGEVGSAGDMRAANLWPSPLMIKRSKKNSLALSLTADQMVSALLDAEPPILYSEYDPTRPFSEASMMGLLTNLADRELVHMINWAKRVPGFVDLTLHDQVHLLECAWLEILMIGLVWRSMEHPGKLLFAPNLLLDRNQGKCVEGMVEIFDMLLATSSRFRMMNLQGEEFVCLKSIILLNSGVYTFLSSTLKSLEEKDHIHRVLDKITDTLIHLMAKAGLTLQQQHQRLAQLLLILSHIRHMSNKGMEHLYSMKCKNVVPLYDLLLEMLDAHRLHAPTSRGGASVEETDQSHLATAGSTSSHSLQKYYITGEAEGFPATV
Outline: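 Inhibition of estradiol-driven luciferase expression was measured with compounds co-applied alongside oestrogen. Reporter system: MCF7-derived MVLN cells expressing endogenous functional ER and an ER-responsive luciferase construct.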

IC50 [2] [nM]	SMILES	inhibition in vivo at 0.3 mg/kg [1] [%]
20	CN(CCCCCCC1=C(c2ccc(F)c(F)c2)CCCc2cc(O)ccc21)CCCCS(=O)(=O)CCCC(F)(F)F [Example 45, 8-(3,4-Difluorophenyl)-9-[6-(methyl{4-[(4,4,4-trifluorobutyl)sulphonyl]butyl}amino)hexyl]-6,7-dihydro-5H-benzo[7]annulen-3-ol]	73
168	CCN(CCCCCCC1=C(c2cc(F)cc(F)c2)CCCc2cc(O)ccc21)CCCS(=O)(=O)CCC(F)(F)F [Example 14, 8-(3,5-Difluorophenyl)-9-[6-(ethyl{3-[(3,3,3-trifluoropropyl)sulphonyl]propyl}amino)hexyl]-6,7-dihydro-5H-benzo[7]annulen-3-ol]	
5	C[C@H](O)CN(CCCCCCC1=C(c2ccc(F)cc2)CCCc2cc(O)ccc21)CCCCS(=O)(=O)CCCC(F)(F)F [Example 93, 8-(4-Fluorophenyl)-9-[6-([(2S)-2-hydroxypropyl]{4-[(4,4,4-trifluorobutyl)sulphonyl]butyl}amino)hexyl]-6,7-dihydro-5H-benzo[7]annulen-3-ol]	
84	CC(C)(O)CN(CCCCCCC1=C(c2cc(F)cc(F)c2)CCCc2cc(O)ccc21)CCCS(=O)(=O)CCC(F)(F)F [Example 11, 8-(3,5-Difluorophenyl)-9-{6-[(2-hydroxy-2-methylpropyl){3-[(3,3,3-trifluoropropyl)sulphonyl]propyl}amino]hexyl}-6,7-dihydro-5H-benzo[7]annulen-3-ol]	
26	CN(CCCCCCC1=C(c2ccc(F)c(F)c2)CCCc2cc(O)ccc21)CCCCS(=O)(=O)CCC(F)(F)F [Example 47, 8-(3,4-Difluorophenyl)-9-[6-(methyl{4-[(3,3,3-trifluoropropyl)sulphonyl]butyl}amino)hexyl]-6,7-dihydro-5H-benzo[7]annulen-3-ol]	
9	CN(CCCCCCC1=C(c2ccccc2F)CCCc2cc(O)ccc21)CCCS(=O)(=O)CCCC(F)(F)C(F)(F)F [Example 126]	
7	O=S(=O)(CCCN(CCO)CCCCCCC1=C(c2ccc(F)cc2)CCCc2cc(O)ccc21)CCCC(F)(F)F [Example 97, 8-(4-Fluorophenyl)-9-{6-[(2-hydroxyethyl){3-[(4,4,4-trifluorobutyl)sulphonyl]propyl}amino]hexyl}-6,7-dihydro-5H-benzo[7]annulen-3-ol]	
7	O=S(=O)(CCCCN(CCO)CCCCCCC1=C(c2ccc(F)cc2)CCCc2cc(O)c(F)cc21)CCCC(F)(F)F [Example 104, 2-Fluoro-8-(4-fluorophenyl)-9-{6-[(2-hydroxyethyl){4-[(4,4,4-trifluorobutyl)sulphonyl]butyl}amino]hexyl}-6,7-dihydro-5H-benzo[7]annulen-3-ol]	
17	CN(CCCCCCC1=C(c2cc(F)cc(F)c2)CCCc2cc(O)ccc21)CCCCS(=O)(=O)CCCC(F)(F)C(F)(F)F [Example 9, 8-(3,5-Difluorophenyl)-9-[6-(methyl{4-[(4,4,5,5,5-pentafluoropentyl)sulphonyl]butyl}amino)hexyl]-6,7-dihydro-5H-benzo[7]annulen-3-ol]	
27	O=S(=O)(CCCN(CCO)CCCCCCC1=C(c2ccc(F)cc2)CCCc2cc(O)ccc21)CCCC(F)(F)C(F)(F)F [Example 54, 8-(4-Fluorophenyl)-9-{6-[(2-hydroxyethyl){3-[(4,4,5,5,5-pentafluoropentyl)sulphonyl]propyl}amino]hexyl}-6,7-dihydro-5H-benzo[7]annulen-3-ol]	
8	CN(CCCCCCC1=C(c2ccc(F)cc2)CCCc2c1ccc(O)c2F)CCCCS(=O)(=O)CCCC(F)(F)C(F)(F)F [Example 39, 4-Fluoro-8-(4-fluorophenyl)-9-[6-(methyl{4-[(4,4,5,5,5-pentafluoropentyl)sulphonyl]butyl}amino)hexyl]-6,7-dihydro-5H-benzo[7]annulen-3-ol]	
11	CN(CCCCCCC1=C(c2ccc(F)cc2)CCCc2cc(O)ccc21)CCCCS(=O)(=O)CCC(F)(F)C(F)(F)F [Example 75, 8-(4-Fluorophenyl)-9-[6-(methyl{4-[(3,3,4,4,4-pentafluorobutyl)sulphonyl]butyl}amino)hexyl]-6,7-dihydro-5H-benzo[7]annulen-3-ol]	
24	COC(=O)CCCN(CCCCCCC1=C(c2ccc(F)cc2)CCCc2cc(O)ccc21)CCCCS(=O)(=O)CCCC(F)(F)F [Example 88, Methyl-4-({6-[8-(4-fluorophenyl)-3-hydroxy-6,7-dihydro-5H-benzo[7]annulen-9-yl]hexyl}{4-[(4,4,4-trifluorobutyl)sulphonyl]butyl}amino)butanoate]	
9	CN(CCCCCCC1=C(c2ccc(F)c(F)c2)CCCc2cc(O)ccc21)CCCC[S+]([O-])CCCC(F)(F)C(F)(F)F (stereo not drawn) [Example 20, 8-(3,4-Difluorophenyl)-9-[6-(methyl{4-[(4,4,5,5,5-pentafluoropentyl)sulphinyl]butyl}amino)hexyl]-6,7-dihydro-5H-benzo[7]annulen-3-ol]	
181	CN(CCCCCC1=C(c2ccc(F)cc2)CCCc2cc(O)ccc21)CCCCS(=O)(=O)CCCC(F)(F)F [Example 49, 8-(4-Fluorophenyl)-9-[5-(methyl{4-[(4,4,4-trifluorobutyl)sulphonyl]butyl}amino)pentyl]-6,7-dihydro-5H-benzo[7]annulen-3-ol]	
25	CN(CCCCCCC1=C(c2ccc(F)cc2)CCCc2c1ccc(O)c2F)CCCSCCCC(F)(F)C(F)(F)F [Example 86, 4-Fluoro-8-(4-fluorophenyl)-9-[6-(methyl{3-[(4,4,5,5,5-pentafluoropentyl)sulphanyl]propyl}amino)hexyl]-6,7-dihydro-5H-benzo[7]annulen-3-ol]	
8	CN(CCCCCCC1=C(c2cc(F)cc(F)c2)CCCc2cc(O)ccc21)CCC[S+]([O-])CCC(F)(F)C(F)(F)F (stereo not drawn) [Example 2, 8-(3,5-Difluorophenyl)-9-[6-(methyl{3-[(3,3,4,4,4-pentafluorobutyl)sulphinyl]propyl}amino)hexyl]-6,7-dihydro-5H-benzo[7]annulen-3-ol]	
56	CC(C)(O)CN(CCCCCCC1=C(c2ccc(F)cc2)CCCc2cc(O)ccc21)CCC[S+]([O-])CCC(F)(F)F (stereo not drawn) [Example 120, 8-(4-fluorophenyl)-9-{6-[(2-hydroxy-2-methylpropyl){3-[(3,3,3-trifluoropropyl)sulphinyl]propyl}amino)hexyl}-6,7-dihydro-5H-benzo[7]annulen-3-ol]	
28	O=S(=O)(CCCN(CCF)CCCCCCC1=C(c2ccc(F)cc2)CCCc2cc(O)ccc21)CCCC(F)(F)C(F)(F)F [Example 74, 9-{6-[(2-Fluoroethyl){3-[(4,4,5,5,5-pentafluoropentyl)sulphonyl]propyl}amino]hexyl}-8-(4-fluorophenyl)-6,7-dihydro-5H-benzo[7]annulen-3-ol]	
21	O=C(O)CN(CCCCCCC1=C(c2ccc(F)cc2)CCCc2cc(O)ccc21)CCCCS(=O)(=O)CCCC(F)(F)F [Example 94, N-{6-[8-(4-Fluorophenyl)-3-hydroxy-6,7-dihydro-5H-benzo[7]annulen-9-yl]hexyl}-N-{4-[(4,4,4-trifluorobutyl)sulphonyl]butyl}glycine]	
12	CN(CCCCCCC1=C(c2ccc(F)cc2)CCCc2cc(O)c(F)cc21)CCCCS(=O)(=O)CCCC(F)(F)C(F)(F)F [Example 105, 2-Fluoro-8-(4-fluorophenyl)-9-[6-(methyl{4-[(4,4,5,5,5-pentafluoropentyl)sulphonyl]butyl}amino)hexyl]-6,7-dihydro-5H-benzo[7]annulen-3-ol]	
5	O=S(=O)(CCCN(CCO)CCCCCCC1=C(c2ccc(F)cc2)CCCc2cc(O)c(F)cc21)CCCC(F)(F)F [Example 103, 2-Fluoro-8-(4-fluorophenyl)-9-{6-[(2-hydroxyethyl){3-[(4,4,4-trifluorobutyl)sulphonyl]propyl}amino]hexyl}-6,7-dihydro-5H-benzo[7]annulen-3-ol]	
181	CN(CCCCCCC1=C(c2cc(F)cc(F)c2)CCCc2cc(O)ccc21)CCCS(=O)(=O)CCC(F)(F)F [Example 6, 8-(3,5-Difluorophenyl)-9-[6-(methyl{3-[(3,3,3-trifluoropropyl)sulphonyl]propyl}amino)hexyl]-6,7-dihydro-5H-benzo[7]annulen-3-ol]	

— US20130252890A1, “6,7-DIHYDRO-5H-BENZO[7]ANNULENE DERIVATIVES, PROCESS FOR PREPARATION THEREOF, PHARMACEUTICAL PREPARATIONS COMPRISING THEM, AND THE USE THEREOF FOR PRODUCTION OF MEDICAMENTS” (BAYER INTELLECTUAL PROPERTY GMBH, priority 2010, published 2013)
